Our source for the Kd values is publication PMC10244445, “Molecular basis for the recognition of 24-(S)-hydroxycholesterol by integrin αvβ3” (Scientific Reports, 2023).

One may read the Kd as the equilibrium constant for the complex coming apart.

Read-outs that look alike come from different tables or passages of the source.

The target in the test is T1, integrin αvβ3 (Homo sapiens, UniProt P05106+P06756).
T1 construct: gene ITGAV; purified human αvβ3 Integrin; with integrin αv subunit (ITGAV, P06756)
T1 sequence (P06756 31-889): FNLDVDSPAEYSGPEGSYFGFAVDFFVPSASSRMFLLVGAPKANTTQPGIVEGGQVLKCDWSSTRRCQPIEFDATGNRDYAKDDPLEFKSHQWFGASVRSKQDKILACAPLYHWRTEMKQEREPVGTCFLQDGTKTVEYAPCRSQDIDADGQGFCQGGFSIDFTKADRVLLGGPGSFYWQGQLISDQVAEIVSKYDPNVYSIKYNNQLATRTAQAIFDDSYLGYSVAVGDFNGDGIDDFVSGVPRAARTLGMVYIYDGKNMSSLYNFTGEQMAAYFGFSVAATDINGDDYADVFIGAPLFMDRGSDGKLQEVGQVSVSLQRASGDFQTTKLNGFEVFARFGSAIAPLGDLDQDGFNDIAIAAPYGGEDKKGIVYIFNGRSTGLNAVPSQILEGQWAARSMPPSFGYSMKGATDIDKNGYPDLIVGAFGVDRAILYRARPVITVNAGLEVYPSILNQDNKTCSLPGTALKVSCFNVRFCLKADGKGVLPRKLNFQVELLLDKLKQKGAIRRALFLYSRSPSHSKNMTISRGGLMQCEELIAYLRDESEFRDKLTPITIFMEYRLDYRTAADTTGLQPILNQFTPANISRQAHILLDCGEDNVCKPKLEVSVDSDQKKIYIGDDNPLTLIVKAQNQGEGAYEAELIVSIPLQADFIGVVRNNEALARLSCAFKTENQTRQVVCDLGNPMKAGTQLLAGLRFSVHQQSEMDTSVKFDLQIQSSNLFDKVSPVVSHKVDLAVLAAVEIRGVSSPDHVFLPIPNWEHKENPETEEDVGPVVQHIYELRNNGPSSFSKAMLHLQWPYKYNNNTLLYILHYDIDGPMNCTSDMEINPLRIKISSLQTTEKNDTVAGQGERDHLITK
T1 sequence (P06756 891-1048): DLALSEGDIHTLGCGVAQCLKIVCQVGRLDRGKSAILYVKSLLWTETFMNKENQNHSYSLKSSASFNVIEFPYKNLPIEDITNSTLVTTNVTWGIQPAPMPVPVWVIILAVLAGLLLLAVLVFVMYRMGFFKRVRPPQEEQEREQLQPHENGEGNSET
T1 sequence (P05106 27-788): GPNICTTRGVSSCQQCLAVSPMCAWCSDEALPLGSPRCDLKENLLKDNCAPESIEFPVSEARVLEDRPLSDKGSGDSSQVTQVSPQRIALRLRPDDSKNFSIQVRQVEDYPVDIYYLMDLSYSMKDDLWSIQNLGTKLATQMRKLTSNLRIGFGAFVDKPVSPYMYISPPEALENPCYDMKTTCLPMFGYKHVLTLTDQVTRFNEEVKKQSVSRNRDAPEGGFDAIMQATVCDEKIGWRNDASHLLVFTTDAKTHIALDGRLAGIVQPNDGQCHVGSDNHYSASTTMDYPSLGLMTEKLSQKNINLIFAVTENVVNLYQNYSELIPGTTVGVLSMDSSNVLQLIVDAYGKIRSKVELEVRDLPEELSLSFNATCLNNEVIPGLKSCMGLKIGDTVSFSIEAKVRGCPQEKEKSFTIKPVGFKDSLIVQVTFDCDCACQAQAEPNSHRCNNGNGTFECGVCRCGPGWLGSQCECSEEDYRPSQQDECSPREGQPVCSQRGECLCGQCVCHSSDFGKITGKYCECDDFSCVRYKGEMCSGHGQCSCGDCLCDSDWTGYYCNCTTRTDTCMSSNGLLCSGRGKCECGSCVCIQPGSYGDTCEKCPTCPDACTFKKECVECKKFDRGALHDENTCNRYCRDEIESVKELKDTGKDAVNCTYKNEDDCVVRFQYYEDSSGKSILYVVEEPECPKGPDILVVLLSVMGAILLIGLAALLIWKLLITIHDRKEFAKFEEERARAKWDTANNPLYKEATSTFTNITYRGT
Description: SPR (Biacore S200, integrin immobilized on CM5 chip, steady-state model). The test is classed as binding. On the technique in general: SPR reads the build-up and loss of mass on a sensor chip optically.

Compound `CC(C)[C@@H](O)CC[C@@H](C)[C@H]1CC[C@H]2[C@@H]3CC=C4C[C@@H](O)CC[C@]4(C)[C@H]3CC[C@]12C` [24HC, 24-(S)-hydroxycholesterol] had a Kd of 151 nM.
Consider `C[C@H](CCCC(C)(C)O)[C@H]1CC[C@H]2[C@@H]3CC=C4C[C@@H](O)CC[C@]4(C)[C@H]3CC[C@]12C` [25HC, 25-hydroxycholesterol], for which the Kd (read-out: Kd) came to 56.6 nM.
